Where a SMILES comes first, the peptide text is derived from it. [ ]: non-standard residue; d: D form. The star is where a group is joined. X1 = Cc1ccc(Nc2ncc3c(n2)N(C)C(=O)N(c2cc(C(=O)*)ccc2C)C3)cn1; Aib = CC(C)(N)C(=O)O
Assays:
Assay in all cases: kinase selectivity profiling
Type in all cases: biochemical
Conditions in all cases: 10µM ATP, read-out: % inhibition (relative to DMSO)
CAMK1d = molecular target: T1, CAMK1d (Homo sapiens, UniProt Q8IU85)
T1 construct: purchased Reaction Biology Corp
Experimental: (§1) Full panel kinase profiling and kinase IC50 measurement were performed by using Reaction Biology Corp. (San Diego, USA).

CAMK1b = molecular target: T2, CAMK1b (Homo sapiens, UniProt Q6P2M8)
T2 construct: purchased Reaction Biology Corp
Experimental: as §1

MST3/STK24 = molecular target: T3, MST3/STK24 (Homo sapiens, UniProt Q9Y6E0)
T3 construct: purchased Reaction Biology Corp
T3 sequence (Q9Y6E0 whole entry): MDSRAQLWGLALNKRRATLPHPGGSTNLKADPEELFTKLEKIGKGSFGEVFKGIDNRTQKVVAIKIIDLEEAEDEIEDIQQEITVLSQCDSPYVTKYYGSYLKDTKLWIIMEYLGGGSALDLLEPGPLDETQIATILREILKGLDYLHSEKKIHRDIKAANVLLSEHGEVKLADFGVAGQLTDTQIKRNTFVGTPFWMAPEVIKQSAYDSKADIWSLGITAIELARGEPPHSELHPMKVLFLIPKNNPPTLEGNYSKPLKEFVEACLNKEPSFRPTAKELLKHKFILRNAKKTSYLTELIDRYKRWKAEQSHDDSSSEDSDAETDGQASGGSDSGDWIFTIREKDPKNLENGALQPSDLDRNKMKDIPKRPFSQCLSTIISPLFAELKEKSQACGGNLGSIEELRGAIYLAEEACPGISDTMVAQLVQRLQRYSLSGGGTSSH
Experimental: as §1

TAK1 = molecular target: T4, TAK1 (Homo sapiens, UniProt O43318)
T4 construct: purchased Reaction Biology Corp
T4 sequence (O43318 1-303 limits assumed): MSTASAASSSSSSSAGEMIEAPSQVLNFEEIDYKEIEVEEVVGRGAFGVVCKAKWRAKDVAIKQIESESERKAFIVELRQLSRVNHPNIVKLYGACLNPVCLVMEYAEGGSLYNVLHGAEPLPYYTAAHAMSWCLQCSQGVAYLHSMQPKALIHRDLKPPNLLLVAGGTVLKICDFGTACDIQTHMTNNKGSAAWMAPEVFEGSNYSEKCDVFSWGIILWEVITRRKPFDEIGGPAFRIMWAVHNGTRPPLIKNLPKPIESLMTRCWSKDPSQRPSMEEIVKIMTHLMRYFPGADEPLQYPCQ
Experimental: as §1

LIMK1 = molecular target: T5, LIMK1 (Homo sapiens, UniProt P53667)
T5 construct: purchased Reaction Biology Corp
Experimental: as §1

MYLK3 = molecular target: T6, MYLK3 (Homo sapiens, UniProt Q32MK0)
T6 construct: purchased Reaction Biology Corp
Experimental: as §1

PKN3/PRK3 = molecular target: T7, PKN3/PRK3 (Homo sapiens, UniProt Q6P5Z2)
T7 construct: purchased Reaction Biology Corp
T7 sequence (Q6P5Z2 whole entry): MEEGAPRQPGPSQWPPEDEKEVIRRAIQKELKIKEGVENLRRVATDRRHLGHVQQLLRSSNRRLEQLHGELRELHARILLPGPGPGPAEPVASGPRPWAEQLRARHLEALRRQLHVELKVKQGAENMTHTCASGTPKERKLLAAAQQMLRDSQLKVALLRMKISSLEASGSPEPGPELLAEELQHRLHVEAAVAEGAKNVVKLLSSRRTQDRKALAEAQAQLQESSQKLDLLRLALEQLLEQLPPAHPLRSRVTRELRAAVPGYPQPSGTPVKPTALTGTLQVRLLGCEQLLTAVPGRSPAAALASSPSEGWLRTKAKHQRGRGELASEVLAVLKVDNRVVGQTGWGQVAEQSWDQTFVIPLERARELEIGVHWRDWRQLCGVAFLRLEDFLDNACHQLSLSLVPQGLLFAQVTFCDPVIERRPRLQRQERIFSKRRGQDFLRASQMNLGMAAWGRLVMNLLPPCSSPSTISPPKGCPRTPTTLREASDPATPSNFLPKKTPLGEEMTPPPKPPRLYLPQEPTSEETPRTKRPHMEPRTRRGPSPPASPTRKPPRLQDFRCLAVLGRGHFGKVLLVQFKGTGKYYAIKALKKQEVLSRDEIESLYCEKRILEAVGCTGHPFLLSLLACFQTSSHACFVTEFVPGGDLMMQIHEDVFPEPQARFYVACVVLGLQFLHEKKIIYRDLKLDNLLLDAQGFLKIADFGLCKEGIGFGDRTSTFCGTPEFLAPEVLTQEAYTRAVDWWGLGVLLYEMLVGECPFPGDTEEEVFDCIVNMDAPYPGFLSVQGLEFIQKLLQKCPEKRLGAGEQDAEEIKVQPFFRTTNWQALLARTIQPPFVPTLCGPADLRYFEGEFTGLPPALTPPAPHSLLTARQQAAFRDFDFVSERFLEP
Experimental: as §1

GRK5 = molecular target: T8, GRK5 (Homo sapiens, UniProt P34947)
T8 construct: purchased Reaction Biology Corp
Experimental: as §1

MARK1 = molecular target: T9, MARK1 (Homo sapiens, UniProt Q9P0L2)
T9 construct: purchased Reaction Biology Corp
Experimental: as §1

CDK6/cyclin D1 = molecular target: T10, CDK6/cyclin D1 (Homo sapiens, UniProt Q00534)
T10 construct: purchased Reaction Biology Corp
Experimental: as §1

PEAK1 = molecular target: T11, PEAK1 (Homo sapiens, UniProt Q9H792)
T11 construct: purchased Reaction Biology Corp
Experimental: as §1

ERK1 = molecular target: T12, ERK1 (Homo sapiens, UniProt P27361)
T12 construct: purchased Reaction Biology Corp
Experimental: as §1

Aurora C = molecular target: T13, Aurora C (Homo sapiens, UniProt Q9UQB9)
T13 construct: purchased Reaction Biology Corp
Experimental: as §1

MEKK2 = molecular target: T14, MEKK2 (Homo sapiens, UniProt Q9Y2U5)
T14 construct: purchased Reaction Biology Corp
Experimental: as §1

LIMK2 = molecular target: T15, LIMK2 (Homo sapiens, UniProt P53671)
T15 construct: purchased Reaction Biology Corp
Experimental: as §1

CK1g3 = molecular target: T16, CK1g3 (Homo sapiens, UniProt Q9Y6M4)
T16 construct: purchased Reaction Biology Corp
Experimental: as §1

CDK8/cyclin C = molecular target: T17, CDK8/cyclin C (Homo sapiens, UniProt P49336)
T17 construct: purchased Reaction Biology Corp
Experimental: as §1

PKN1/PRK1 = molecular target: T18, PKN1/PRK1 (Homo sapiens, UniProt Q16512)
T18 construct: purchased Reaction Biology Corp
Experimental: as §1

CLK1 = molecular target: T19, CLK1 (Homo sapiens, UniProt P49759)
T19 construct: purchased Reaction Biology Corp
T19 sequence (P49759 whole entry): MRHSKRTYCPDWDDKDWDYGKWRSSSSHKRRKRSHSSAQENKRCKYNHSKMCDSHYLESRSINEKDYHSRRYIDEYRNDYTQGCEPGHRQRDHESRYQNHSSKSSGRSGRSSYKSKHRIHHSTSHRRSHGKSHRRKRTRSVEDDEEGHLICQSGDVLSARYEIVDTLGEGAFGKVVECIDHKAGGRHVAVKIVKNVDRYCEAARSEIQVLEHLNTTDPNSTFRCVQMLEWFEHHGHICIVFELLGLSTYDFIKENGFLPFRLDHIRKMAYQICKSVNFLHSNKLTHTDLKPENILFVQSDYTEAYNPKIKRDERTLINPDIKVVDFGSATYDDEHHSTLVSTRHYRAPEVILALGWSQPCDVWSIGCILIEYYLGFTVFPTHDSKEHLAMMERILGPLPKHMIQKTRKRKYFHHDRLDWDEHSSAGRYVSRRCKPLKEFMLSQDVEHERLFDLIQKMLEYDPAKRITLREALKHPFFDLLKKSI
Experimental: as §1

CDK3/cyclin E2 = molecular target: T20, CDK3/cyclin E2 (Homo sapiens, UniProt Q00526)
T20 construct: purchased Reaction Biology Corp
Experimental: as §1

MEKK6 = molecular target: T21, MEKK6 (Homo sapiens, UniProt O95382)
T21 construct: purchased Reaction Biology Corp
Experimental: as §1

CAMK1g = molecular target: T22, CAMK1g (Homo sapiens, UniProt Q96NX5)
T22 construct: purchased Reaction Biology Corp
Experimental: as §1

PKCa = molecular target: T23, PKCa (Homo sapiens, UniProt P17252)
T23 construct: purchased Reaction Biology Corp
Experimental: as §1

CDK1/cyclin E = molecular target: T24, CDK1/cyclin E (Homo sapiens, UniProt P06493)
T24 construct: purchased Reaction Biology Corp
Experimental: as §1

MARK2/PAR-1Ba = molecular target: T25, MARK2/PAR-1Ba (Homo sapiens, UniProt Q7KZI7)
T25 construct: purchased Reaction Biology Corp
Experimental: as §1

PLK3 = molecular target: T26, PLK3 (Homo sapiens, UniProt Q9H4B4)
T26 construct: purchased Reaction Biology Corp
T26 sequence (Q9H4B4 whole entry): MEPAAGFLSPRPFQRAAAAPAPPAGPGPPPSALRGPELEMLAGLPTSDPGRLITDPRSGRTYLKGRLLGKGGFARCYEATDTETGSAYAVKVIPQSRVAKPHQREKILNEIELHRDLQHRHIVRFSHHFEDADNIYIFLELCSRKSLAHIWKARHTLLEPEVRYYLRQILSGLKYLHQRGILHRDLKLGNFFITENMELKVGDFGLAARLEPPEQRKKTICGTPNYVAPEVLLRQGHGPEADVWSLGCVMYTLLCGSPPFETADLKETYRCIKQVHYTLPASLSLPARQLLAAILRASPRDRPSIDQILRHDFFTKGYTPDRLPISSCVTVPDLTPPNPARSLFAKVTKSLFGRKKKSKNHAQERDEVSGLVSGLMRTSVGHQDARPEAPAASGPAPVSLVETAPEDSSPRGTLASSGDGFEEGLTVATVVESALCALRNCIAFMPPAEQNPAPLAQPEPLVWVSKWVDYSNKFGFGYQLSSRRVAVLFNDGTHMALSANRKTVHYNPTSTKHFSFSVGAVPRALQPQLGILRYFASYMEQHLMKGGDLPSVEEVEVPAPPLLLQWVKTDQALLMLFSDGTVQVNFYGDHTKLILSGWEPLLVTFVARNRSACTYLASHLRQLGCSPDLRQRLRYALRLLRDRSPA
Experimental: as §1

MKK6 = molecular target: T27, MKK6 (Homo sapiens, UniProt P52564)
T27 construct: purchased Reaction Biology Corp
Experimental: as §1

JAK3 = molecular target: T28, JAK3 (Homo sapiens, UniProt P52333)
T28 construct: purchased Reaction Biology Corp
Experimental: as §1

PIM1 = molecular target: T29, PIM1 (Homo sapiens, UniProt P11309)
T29 construct: purchased Reaction Biology Corp
Experimental: as §1

STK32B/YANK2 = molecular target: T30, STK32B/YANK2 (Homo sapiens, UniProt Q9NY57)
T30 construct: purchased Reaction Biology Corp
T30 sequence (Q9NY57 whole entry): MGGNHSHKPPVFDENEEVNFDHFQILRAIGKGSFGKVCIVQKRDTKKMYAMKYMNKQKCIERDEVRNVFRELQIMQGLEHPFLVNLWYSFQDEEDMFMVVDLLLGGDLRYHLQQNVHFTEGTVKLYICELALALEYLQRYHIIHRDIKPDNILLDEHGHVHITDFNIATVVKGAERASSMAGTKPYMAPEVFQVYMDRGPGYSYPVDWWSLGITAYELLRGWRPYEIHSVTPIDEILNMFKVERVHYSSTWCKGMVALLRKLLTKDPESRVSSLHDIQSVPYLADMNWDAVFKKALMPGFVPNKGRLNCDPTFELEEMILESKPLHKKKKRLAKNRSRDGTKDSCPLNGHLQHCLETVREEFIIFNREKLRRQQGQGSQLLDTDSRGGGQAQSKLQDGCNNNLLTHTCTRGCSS
Experimental: as §1

NEK2 = molecular target: T31, NEK2 (Homo sapiens, UniProt P51955)
T31 construct: purchased Reaction Biology Corp
Experimental: as §1

SNARK/NUAK2 = molecular target: T32, SNARK/NUAK2 (Homo sapiens, UniProt Q9H093)
T32 construct: purchased Reaction Biology Corp
T32 sequence (Q9H093 whole entry): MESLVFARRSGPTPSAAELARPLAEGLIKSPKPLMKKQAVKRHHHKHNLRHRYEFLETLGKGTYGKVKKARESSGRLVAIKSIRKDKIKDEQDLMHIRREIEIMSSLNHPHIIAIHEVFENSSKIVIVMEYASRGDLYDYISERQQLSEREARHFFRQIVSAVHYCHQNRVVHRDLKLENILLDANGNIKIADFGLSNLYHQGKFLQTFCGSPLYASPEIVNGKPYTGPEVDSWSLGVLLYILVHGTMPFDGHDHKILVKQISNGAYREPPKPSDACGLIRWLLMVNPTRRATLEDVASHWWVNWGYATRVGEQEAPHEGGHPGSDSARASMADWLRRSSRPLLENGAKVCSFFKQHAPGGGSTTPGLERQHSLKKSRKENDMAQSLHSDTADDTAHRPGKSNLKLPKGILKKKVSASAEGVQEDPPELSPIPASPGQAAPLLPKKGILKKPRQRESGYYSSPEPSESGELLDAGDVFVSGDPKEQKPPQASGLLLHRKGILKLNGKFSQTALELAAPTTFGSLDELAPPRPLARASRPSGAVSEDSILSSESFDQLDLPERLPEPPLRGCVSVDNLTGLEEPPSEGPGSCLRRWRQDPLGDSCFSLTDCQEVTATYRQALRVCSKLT
Experimental: as §1

RIPK5 = molecular target: T33, RIPK5 (Homo sapiens, UniProt Q6XUX3)
T33 construct: purchased Reaction Biology Corp
Experimental: as §1

ULK2 = molecular target: T34, ULK2 (Homo sapiens, UniProt Q8IYT8)
T34 construct: purchased Reaction Biology Corp
Experimental: as §1

MAPKAPK3 = molecular target: T35, MAPKAPK3 (Homo sapiens, UniProt Q16644)
T35 construct: purchased Reaction Biology Corp
Experimental: as §1

DDR2 = molecular target: T36, DDR2 (Homo sapiens, UniProt Q16832)
T36 construct: purchased Reaction Biology Corp
Experimental: as §1

SRMS = molecular target: T37, SRMS (Homo sapiens, UniProt Q9H3Y6)
T37 construct: purchased Reaction Biology Corp
T37 sequence (Q9H3Y6 whole entry): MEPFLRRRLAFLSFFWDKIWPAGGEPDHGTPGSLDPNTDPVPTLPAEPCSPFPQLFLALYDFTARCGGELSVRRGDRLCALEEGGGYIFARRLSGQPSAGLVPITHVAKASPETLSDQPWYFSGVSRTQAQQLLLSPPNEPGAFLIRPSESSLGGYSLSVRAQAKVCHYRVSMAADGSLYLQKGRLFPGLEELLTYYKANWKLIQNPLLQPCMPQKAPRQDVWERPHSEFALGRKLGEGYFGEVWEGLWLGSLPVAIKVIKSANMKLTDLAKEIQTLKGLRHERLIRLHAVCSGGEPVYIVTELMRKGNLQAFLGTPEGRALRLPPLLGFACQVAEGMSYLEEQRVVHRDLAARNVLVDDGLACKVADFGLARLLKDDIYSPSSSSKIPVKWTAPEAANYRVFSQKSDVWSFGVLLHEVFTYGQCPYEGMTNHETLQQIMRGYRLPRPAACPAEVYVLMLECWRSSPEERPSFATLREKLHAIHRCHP
Experimental: as §1

YSK4/MAP3K19 = molecular target: T38, YSK4/MAP3K19 (Homo sapiens, UniProt Q56UN5)
T38 construct: purchased Reaction Biology Corp
Experimental: as §1

PKG1b = molecular target: T39, PKG1b (Homo sapiens, UniProt Q13976)
T39 construct: purchased Reaction Biology Corp
Experimental: as §1

MLCK/MYLK = molecular target: T40, MLCK/MYLK (Homo sapiens, UniProt Q15746)
T40 construct: purchased Reaction Biology Corp
Experimental: as §1

WEE1 = molecular target: T41, WEE1 (Homo sapiens, UniProt P30291)
T41 construct: purchased Reaction Biology Corp
Experimental: as §1

p70S6K/RPS6KB1 = molecular target: T42, p70S6K/RPS6KB1 (Homo sapiens, UniProt P23443)
T42 construct: purchased Reaction Biology Corp
Experimental: as §1

PKCiota = molecular target: T43, PKCiota (Homo sapiens, UniProt P41743)
T43 construct: purchased Reaction Biology Corp
Experimental: as §1

For Cc1ccc(Nc2ncc3c(n2)N(C)C(=O)N(c2cc(C(=O)N[C@H](C(=O)N4CCC[C@H]4C(=O)NC(C)(C)C(=O)N[C@@H](CC(C)C)C(=O)N(C)C)C(C)C)ccc2C)C3)cn1 [7a, (S)-N-(1-(((S)-1-(dimethylamino)-4-methyl-1-oxopentan-2-yl)amino)-2-methyl-1-oxopropan-2-yl)-1-((4-methyl-3-(1-methyl-7-((6-methylpyridin-3-yl)amino)-2-oxo-1,4-dihydropyrimido[4,5-d]pyrimidin-3(2H)-yl)benzoyl)-L-valyl)pyrrolidine-2-carboxamide] (X1-VP[Aib]L-NMe2), which inhibition at 1 µM (CAMK1d) is on record?
The inhibition at 1 µM was 8%.

And the inhibition at 1 µM (CAMK1b)?
The inhibition at 1 µM was 15%.

And the inhibition at 1 µM (MST3/STK24)?
Its inhibition at 1 µM is 0%.

And the inhibition at 1 µM (TAK1)?
Its inhibition at 1 µM is 4%.

And the inhibition at 1 µM (LIMK1)?
The inhibition at 1 µM was 51%.

And the inhibition at 1 µM (MYLK3)?
The inhibition at 1 µM was 0%.

And the inhibition at 1 µM (PKN3/PRK3)?
The inhibition at 1 µM was 8%.

And the inhibition at 1 µM (GRK5)?
Its inhibition at 1 µM is 1%.

And the inhibition at 1 µM (MARK1)?
The inhibition at 1 µM was 0%.

What about the inhibition at 1 µM (CDK6/cyclin D1) of the same molecule?
The inhibition at 1 µM was 0%.

What about the inhibition at 1 µM (PEAK1) of the same molecule?
Its inhibition at 1 µM is 44%.

And the inhibition at 1 µM (ERK1)?
Its inhibition at 1 µM is 7%.

And the inhibition at 1 µM (Aurora C)?
Its inhibition at 1 µM is 0%.

What about the inhibition at 1 µM (MEKK2) of the same molecule?
The inhibition at 1 µM was 0%.

What about the inhibition at 1 µM (LIMK2) of the same molecule?
The inhibition at 1 µM was 12%.

What about the inhibition at 1 µM (CK1g3) of the same molecule?
The inhibition at 1 µM was 0%.

And the inhibition at 1 µM (CDK8/cyclin C)?
Its inhibition at 1 µM is 2%.

What about the inhibition at 1 µM (PKN1/PRK1) of the same molecule?
The inhibition at 1 µM was 1%.

What about the inhibition at 1 µM (CLK1) of the same molecule?
The inhibition at 1 µM was 5%.

And the inhibition at 1 µM (CDK3/cyclin E2)?
Its inhibition at 1 µM is 0%.

And the inhibition at 1 µM (MEKK6)?
Its inhibition at 1 µM is 0%.

What about the inhibition at 1 µM (CAMK1g) of the same molecule?
The inhibition at 1 µM was 7%.

What about the inhibition at 1 µM (PKCa) of the same molecule?
The inhibition at 1 µM was 0%.

And the inhibition at 1 µM (CDK1/cyclin E)?
The inhibition at 1 µM was 0%.

And the inhibition at 1 µM (MARK2/PAR-1Ba)?
The inhibition at 1 µM was 0%.

What about the inhibition at 1 µM (PLK3) of the same molecule?
The inhibition at 1 µM was 3%.

And the inhibition at 1 µM (MKK6)?
The inhibition at 1 µM was 8%.

And the inhibition at 1 µM (JAK3)?
The inhibition at 1 µM was 0%.

What about the inhibition at 1 µM (PIM1) of the same molecule?
Its inhibition at 1 µM is 2%.

What about the inhibition at 1 µM (STK32B/YANK2) of the same molecule?
Its inhibition at 1 µM is 16%.

What about the inhibition at 1 µM (NEK2) of the same molecule?
Its inhibition at 1 µM is 0%.

What about the inhibition at 1 µM (SNARK/NUAK2) of the same molecule?
The inhibition at 1 µM was 6%.

What about the inhibition at 1 µM (RIPK5) of the same molecule?
The inhibition at 1 µM was 0%.

What about the inhibition at 1 µM (ULK2) of the same molecule?
Its inhibition at 1 µM is 5%.

What about the inhibition at 1 µM (MAPKAPK3) of the same molecule?
Its inhibition at 1 µM is 2%.

What about the inhibition at 1 µM (DDR2) of the same molecule?
The inhibition at 1 µM was 58%.

And the inhibition at 1 µM (SRMS)?
Its inhibition at 1 µM is 4%.

What about the inhibition at 1 µM (YSK4/MAP3K19) of the same molecule?
The inhibition at 1 µM was 0%.

What about the inhibition at 1 µM (PKG1b) of the same molecule?
The inhibition at 1 µM was 0%.

And the inhibition at 1 µM (MLCK/MYLK)?
Its inhibition at 1 µM is 0%.

And the inhibition at 1 µM (WEE1)?
The inhibition at 1 µM was 0%.

And the inhibition at 1 µM (p70S6K/RPS6KB1)?
Its inhibition at 1 µM is 0%.

What about the inhibition at 1 µM (PKCiota) of the same molecule?
Its inhibition at 1 µM is 3%.
